Assay results as given in patent US9150608B2, “Neuro-protective compounds and their use” (Biotechnology Research Corp. Ltd., priority 2010, dated 2015).

How the values were obtained:
[1] = tested on: Aβ25-35-treated primary cortical neurons; experiment: Cortical neuron survival assay with amyloid-beta peptide insult (MTT); format: cell-based, rat; conditions: 50 μM, except GAG-C69 at 30 μM; Aβ25-35 10 μM (FIG. 19)
Protocol: FIG. 4. […] After overnight incubation, the MTT assay was performed. Cell survival was calculated as a percentage compared to vehicle control (“CTL no Abeta”).
Exogenous addition of amyloid beta peptide (Aβ) initiates cell death of neuronal cultures via apoptosis.
(§1) The cells were then incubated with test samples and amyloid-beta peptide fragment 25-35 (Aβ, 10 μM, Sigma) in growth medium. A tetrazole, 3-(4,5-Dimethylthiazol-2-yl)-2,5-diphenyltetrazolium bromide (MTT, 5 mg/ml) was added to the medium at a ratio of 1:10 after 24-hr incubation. MTT is reduced by living cells into purple formazan and further solubilized in 20% SDS solution; therefore, the colored solution was measured by spectrophotometer and cell viability was quantified.

[2] = tested on: NMDA receptor-induced excitotoxicity in primary cortical neuronal cells; experiment: NMDA survival assay (LDH release); conditions: 30-50 μM pre-treated 2 hours, NMDA 20 min (FIG. 17)
Protocol: Embryonic rat cortical neurons (11 DIV) were pre-treated with various concentrations of AG—0 (0.1 -30 μg/mL) and then co-incubated with NMDA (20 μM). After 20 min, the medium was replaced with fresh medium, and after overnight incubation lactate dehydrogenase (LDH) released into the medium was measured. Cell death was calculated as a percentage compared to solvent control (“CTL without NMDA”). Assays were conducted in duplicate and repeated at least twice. *=P<0.05.
Cortical neurons were plated on 48-well plate (Nunc) at a density of 1.1×10^5 cells per well and cultured for 11-12 days (11-12 DIV). Neurons were pre-treated with the test compounds for 2 hours prior to N-Methyl-D-Aspartate (NMDA, Sigma) or glutamate (MSG, Sigma) treatment. Briefly, the neurons were rinsed with Locke's solution (5 mM potassium chloride, 128 mM sodium chloride, 2.7 mM calcium chloride, 1 mM di-sodium hydrogen orthophosphate, 5 mM HEPES and 10 mM glucose in Milli-Q water) without Mg^2+, followed by incubation in Locke's solution with addition of glycine (0.1 μM) for 15 minutes. After the incubation, the neurons were co-treated with the test compound (dissolved in Locke's plus glycine solution) and NMDA (20 μM) or glutamate for 20 min. Neurons were then rinsed with Locke's solution containing Mg^2+ and replaced with fresh growth medium. Cell death was assayed and quantified using the lactate dehydrogenase release assay (Cytotoxicity Detection Kit, Roche). Data was compared to a DMSO vehicle control and represented in mean±SEM. The student t-test was used for statistical analysis.

[3] = tested on: rat cortical neurons cultured in the absence of B27; experiment: Cortical neuron survival assay with B27 withdrawal (MTT); format: cell-based; conditions: for cell survival of cortical neurons in the absence of B27 (MTT): 30 μM, pre-treated 24 hours (FIG. 15); for concentration showing neuroprotective effect in the absence of B27 (MTT): primary cortical neurons 7DIV, dose-dependent study 1-30 μM
Protocol: FIG. 2. Adelostemma gracillimum refined fraction promotes rat cortical neuron survival against B27 withdrawal. Cortical neurons isolated from embryonic day 18 rats were cultured in Neurobasal medium supplemented with 2 % B27. […] A MTT assay was performed 24 hours later. Cell survival is presented as a percentage compared to a DMSO control in the presence of B27 (“CTL with B27”). Assays were conducted in triplicate and repeated at least twice. *=P<0.05.
Primary cortical neurons were cultured in Neurobasal medium and supplemented with B27, a proprietary formula of Life Technologies. The combination of Neurobasal medium and B27 provides a stable growth environment for primary neurons to maturity in vitro. Neurons undergo apoptosis or cell death in the absence of B27. To study the neuroprotective effect of Adelostemma gracillimum refined fraction, neurons of 7DIV were treated with AG-0 and cell survival was measured as mitochondrial activity by the MTT assay.
as §1, with “washed with Hanks' solution twice and replaced” for “incubated”, “that were serial diluted” for “and amyloid-beta peptide fragment 25-35 (Aβ, 10 μM, Sigma)”, “Neurobasal” for “growth”, “a 2-day” for “24-hr”

[4] = tested on: cyclic AMP response (CRE) element; experiment: CRE-dependent transcription assay (luciferase); format: cell-based, rat; conditions: hippocampal neurons 12DIV, 50 μM, 6 hours
Protocol: FIG. 41. GAG compounds enhance CRE-dependent transcription activity. GAG-C14 (a), GAG-C53 (b), GAG-C63 (c), GAG-C69 (d), GAG-C84 (e), GAG-C111 (f), GAG-C122 (g), GAG-C123 (h), and GAG-C129 (i) induce CRE-dependent transcriptional activity in cultured hippocampal neurons. On the day of cell seeding, hippocampal neurons were transfected with a firefly luciferase reporter plasmid containing cyclic AMP response (CRE)-element. The cells at 12 DIV were then treated with 50 μM of AG compounds for 6 hours. Data are mean±SEM (n=3-4), *=P<0.05, **=P<0.01, and ***=P<0.005 versus vehicle-treated cells (0 μM), student's t test.
Cultured hippocampal neurons were transfected with a firefly luciferase reporter plasmid containing a cyclic AMP response (CRE) element. At 12DIV, the cells were treated with 50 μM of compound for 6 hours, then CRE-dependent transcription activity was assayed by measuring luciferase levels.
Freshly isolated embryonic cortical neurons were transfected with a luciferase reporter gene (Cre-Luc) linked to CREB activation following the ACM lipofectamine method using Lipofectamine 2000, a cationic liposome based reagent (Invitrogen). […] Transfection was performed using 1 μL Lipofectamine 2000 and 0.4 μg DNA per well. Neurons were then treated with test samples for time periods of 6 hours. After treatment, the cells were washed with ice-cold DPBS and 100 μL of 1× luciferase lysis buffer (Promega) was added. The plates were placed in −20° C. to freeze the cells, after which they were thawed to facilitate lysis. The lysates were transferred onto white bottom plates and assayed for renilla luciferase using the luciferase assay kit (Promega). Increased CREB activation in the neurons leads to an enhanced luciferase production and this was quantified using a Promega GloMax™ 96 microplate luminometer. […] BDNF and rolipram were used as positive controls.

[5] = tested on: phosphorylated ERK, CREB, Akt, P38, MEK in cortical neurons; experiment: Western blot detection of signaling proteins in cortical neurons; format: cell-based, rat; conditions: cortical neurons 7DIV

Row | Compound | cell survival of cortical neurons treated with Aβ25-35 (MTT) [1] | neuronal survival following NMDA treatment (LDH) [2] | also measured
1 | 3-O-β-D-Cymaropyranose-(1→4)-β-D-Digitoxopyranose-12-trans-cinnamyl-20-acetyl-8,14-seco-sacrostin [GAG-C30] | promoted cell survival | – | –
2 | 12-O-cis/trans-cinnamoyl-20-acetyl-8,14-seco-sarcostin 3-O-β-D-Cymaropyranosyl-(1→4)-β-D-Cymaropyranosyl-(1→4)-β-D-Digitoxopyranosyl-(1→4)-β-D-Cymaropyranosyl-(1→4)-β-D-Oleandropyranoside [GAG-C104] | promoted cell survival | promoted neuronal survival | –
3 | 12-O-cis/trans-cinnamoyl-20-acetyl-8,14-seco-sarcostin 3-O-β-D-Cymaropyranosyl-(1→4)-β-D-Cymaropyranosyl-(1→4)-β-D-Oleandropyranosyl-(1→4)-β-D-Oleandropyranoside [GAG-C96] | – | promoted neuronal survival | –
4 | 12-O-cis/trans-cinnamoyl-20-acetyl-8,14-seco-sarcostin 3-O-β-D-Cymaropyranosyl-(1→4)-β-D-Digitoxopyranosyl-(1→4)-β-D-Oleandropyranosyl-(1→4)-β-D-Oleandropyranoside [GAG-C102] | – | promoted neuronal survival | –
5 | 12-O-cis/trans-cinnamoyl-20-acetyl-8,14-seco-sarcostin 3-O-β-D-Cymaropyranosyl-(1→4)-β-D-Oleandropyranosyl-(1→4)-O-D-Oleandropyranoside [GAG-C90] | – | promoted neuronal survival | –
6 | 12-O-cis/trans-cinnamoylsacrostin 3-O-β-D-Cymaropyranosyl-(1→4)-β-D-Oleandropyranosyl-(1→4)-β-D-Oleandropyranoside [GAG-C86] | – | promoted neuronal survival | –
7 | C/C=C/c1ccc(OC(C)C(O)c2ccc(O)c(O)c2)c(OC)c1 (stereo not shown) [GAG-C13, 3,4,7-trihydroxyl-3′-methoxy-(7′E)-(8-O-4′)-neolignan-7′-en] | promoted cell survival | promoted neuronal survival | cell survival of cortical neurons in the absence of B27 (MTT) [3]: promoted cell survival
8 | COc1cc(C2Oc3c(OC)ccc(C(C)=O)c3C2C)ccc1O (stereo not shown) [GAG-C51, 3-methoxyl-4,4′-dihydroxy-1″-athanone-3′7-epoxy-8,2″-neolignane] | – | promoted neuronal survival | –
9 | C/C=C/c1cc(O)c(OC(C)C(O)c2cc(OC)c(O)c(OC)c2)c(OC)c1 (stereo not shown) [GAG-C59, 4,5′,7-trihydroxy-3, 3′,5-trimethyoxyl-hydroxy-(7′E)-(8-O-4)-neolignan-7′ en] | promoted cell survival | – | –
10 | COc1cc(C2c3cc(OC)c(O)cc3C3Oc4c(C(C)=O)ccc(O)c4CC3C2CO)ccc1O (stereo not shown) [GAG-C61, 4-hydroxy-3′-methoxy-(7′E)-5′7-epoxy-8,4′-oxyneolignane-7′ en] | – | promoted neuronal survival | –
11 | C[C@]12CC[C@H]3[C@@H](C=CC4=CC(=O)CC[C@@]43C)[C@@H]1CC(C(=O)O)C2 (stereo partly shown) [GAG-C63, 4,6-diene-16-carboxylic acid-3-oxo-androstane] | – | – | CRE-dependent transcription activity (luciferase) [4]: enhances CRE-dependent transcription
12 | CC1CC(C)(C)C2C=C(CC/C=C/C1=O)C(=O)O2 (stereo not shown) [GAG-C65, 8-oxohumula-2, 6(E)-dien-1,12-olide] | – | promoted neuronal survival | –
13 | COc1cc([C@@H]2c3cc(OC)c(O)cc3C=C(C)[C@H]2C)ccc1O [GAG-C70, (7′α,8′β)-4,4′-dihydroxyl-3,3′-dimethyoxyl-6,7′-cycloligane-7-en] | promoted cell survival | promoted neuronal survival | ERK phosphorylation ([5]; 0.1-10 μM, 15 min (FIGS. 16, 18, 20)): induced ERK phosphorylation
14 | CC1(C)CC[C@@]2(C(=O)O)CC[C@]3(C)C(=CCC4[C@@]5(C)CCC(O)C(C)(CO)C5CC[C@]43C)C2C1 (stereo partly drawn) [GAG-C74, 3β,23-dihydroxyolean-12-en-28-oic acid] | promoted cell survival | – | –
15 | COc1cc(C)cc(C(O)C(O)c2cc(C)ccc2OC)c1 (stereo not shown) [GAG-C80, 2-(2-methoxy-5-methylphenyl)-1-(3-methoxy-5-methylphenyl)-ethane-1,2-diol] | – | – | cell survival of cortical neurons in the absence of B27 (MTT) [3]: promoted cell survival; concentration showing neuroprotective effect in the absence of B27 (MTT) [3]: 10 to 30 µM
16 | CC(C)=CCOc1c2occc2cc2ccc(=O)oc12 [GAG-C81, 8-(3-methylbut-2-enyloxy)-psoralen] | – | – | cell survival of cortical neurons in the absence of B27 (MTT) [3]: promoted cell survival; neuroprotective effect in the absence of B27 (MTT) ([3]; 1-50 μM): exhibited neuroprotective effects in a dose-dependent manner
17 | COc1c2ccoc2c(OCC=C(C)C)c2oc(=O)ccc12 [GAG-C82, 8-(3-methylbut-2-enyloxy)-5-methoxyl-psoralen] | – | – | cell survival of cortical neurons in the absence of B27 (MTT) [3]: promoted cell survival
18 | COC1CC(OC2C(C)CC(OC3C(C)OC(OC4CC[C@@]5(C)C(=CC[C@]6(O)C5C[C@@H](OC(=O)C=Cc5ccccc5)[C@@]5(C)[C@]6(O)CC[C@@]5(O)C(C)=O)C4)CC3OC)CC2OC)OC(C)C1O (stereo partly drawn) [GAG-C87, Ikemagenin 3-O-β-D-Cymaropyranosyl-(1→4)-β-D-Oleandropyranosyl-(1→4)-β-D-Oleandropyranoside] | – | promoted neuronal survival | –
19 | COC1CC(OC2C(C)OC(OC3C(C)OC(OC4C(C)OC(OC5CC[C@@]6(C)C(=CC[C@]7(O)C6C[C@@H](OC(=O)/C=C(\C)C(C)C)[C@@]6(C)[C@]7(O)CC[C@@]6(O)C(C)=O)C5)CC4OC)CC3OC)CC2OC)OC(C)C1O (stereo partly drawn) [GAG-C92, Caudatin 3-O-β-D-Cymaropyranosyl-(1→4)-β-D-Cymaropyranosyl-(1→4)-β-D-Oleandropyranosyl-(1→4)-β-D-Oleandropyranoside] | – | promoted neuronal survival | –
20 | C/C=C/c1ccc(OC(C)C(O)c2cc(OC)c(O)c(OC)c2)c(OC)c1 (stereo not shown) [GAG-C121, 3,3′,5-trimethoxy-4,7-dihydroxyl-(7′E)-(8-O-4′)-neolignan-7′en] | promoted cell survival | – | –
21 | (K)-methyl 15-hydroxy-15-methoxy-12-oxopentadec-13-enoate [GAG-C78] | – | – | cell survival of cortical neurons in the absence of B27 (MTT) [3]: promoted cell survival; concentration showing neuroprotective effect in the absence of B27 (MTT) [3]: 10 to 30 µM; ERK phosphorylation time course ([5]; 30 μM): significantly induced ERK phosphorylation in cortical neurons from 15 min and persistently to 180 min; CREB phosphorylation ([5]; 30 μM, 15 min of incubation): induced CREB phosphorylation
